How the values were obtained:
Format in all cases: cell-based
[1] = tested on: RPMI-8226; assay: SRB growth assay, 2 days exposure, leukemia
Description: (§1) Arsenic trioxide (1 mg/ml, 10 mg/ampoule, manufactured by Taylor Pharmaceuticals, Decatur, Ill.) was tested at five concentrations each at 10-fold dilutions, i.e., 10^−5, 10^−6, 10^−7, 10^−8 and 10^−9 μg/ml.
(§2) The in vitro tests were performed by incubating the test cells in the presence of the indicated concentration of arsenic trioxide under standard culture conditions for a designated period of time, which is followed by a sulforhodamine B (SRB) protein assay to estimate cell viability or growth. The cell lines are organized into subpanels according to the origin of the cell lines, e.g., leukemia, breast cancer, etc. A description of the cell lines and method of testing is described in Monk et al. (1997, Anticancer Drug Des. 12:533-41) and Weinstein et al., (1997, Science 275:343-9), which are incorporated herein in their entirety.
(§3) The measurement of an effect is expressed in Percentage Growth (PG). The measured effect of the compound on a cell line is calculated according to one or the other of the following two expressions: If (Mean ODtest−Mean ODzero)≧0. then PG=100×(Mean ODtest−Mean ODzero)/(Mean ODctrl−Mean ODzero) If (Mean ODtest−Mean ODzero)<0. then PG=100×(Mean ODtest−Mean ODzero)/(Mean ODzero where: • Mean ODzero=the average of optical density measurements of SRB-derived color just before exposure of cells to the test compounds; • Mean ODtest=the average of optical density measurements of SRB-derived color after exposure of cells to the test compound for a designated period of time; and • Mean ODctrl=the average of optical density measurements of SRB-derived color after with no exposure of cells to the test compound for a designated period of time
(§4) The first two columns describe the subpanel (e.g., leukemia) and cell line (e.g., CCRF-CEM) involved. The next two columns list the Mean ODzero and Mean ODctrl; the next five columns list the Mean ODtest for each of five different concentrations. Each concentration is expressed as the log10 (molar or μg/ml). The next five columns list the calculated PGs for each concentration. The response parameters GI50, TGI and LC50 are interpolated values representing the concentrations at which the PG is +50, 0, and −50, respectively. Sometimes these response parameters cannot be obtained by interpolation. If, for instance, all of the PGs in a given row exceed +50, then none of the three parameters can be obtained by interpolation. In such a case, the value given for each response parameter is the highest concentration tested and is preceded by a “>” sign. This practice is extended similarly to the other possible situations where a response parameter cannot be obtained by interpolation.
(§5) In the first set, the cells from 56 different cancer cell lines were exposed to five concentrations of arsenic trioxide continuously for two days prior to performing the SRB assay. In the second set, the cells from 50 different cell lines (a subset of the first 56 cell lines, plus the renal cancer cell line 786-0) were exposed continuously for six days prior to the SRB assay.

[2] = tested on: K-562; assay: SRB growth assay, 2 days exposure, leukemia
Description: as §1, §2, §3, §4, §5

[3] = tested on: CCRF-CEM; assay: SRB growth assay, 2 days exposure, leukemia
Description: as §1, §2, §3, §4, §5

[4] = tested on: SR; assay: SRB growth assay, 2 days exposure, leukemia
Description: as §1, §2, §3, §4, §5

[5] = tested on: MOLT-4; assay: SRB growth assay, 2 days exposure, leukemia
Description: as §1, §2, §3, §4, §5

[6] = tested on: MDA-N; assay: SRB growth assay, 6 days exposure, breast cancer
Description: as §1, §2, §3, §4, §5

[7] = tested on: T-47D; assay: SRB growth assay, 6 days exposure, breast cancer
Description: as §1, §2, §3, §4, §5

[8] = tested on: MDA-MB-231/ATCC; assay: SRB growth assay, 6 days exposure, breast cancer
Description: as §1, §2, §3, §4, §5

[9] = tested on: 56 different cancer cell lines; assay: NCI cancer cell line panel, SRB assay, first set, 2 days exposure (whole panel, mean graph)
Description: as §1, §2, §3
The first two columns describe the subpanel (e.g., leukemia) and cell line (e.g., CCRF-CEM) involved. The next two columns list the Mean ODzero and Mean ODctrl; the next five columns list the Mean ODtest for each of five different concentrations. Each concentration is expressed as the log10 (molar or μg/ml). The next five columns list the calculated PGs for each concentration. […]

## arsenic trioxide
[1]
  TGI: 0.00723 ng/mL
[1]; log10 conc −4.9
  Percent Growth: −21%
[1]; log10 conc −5.9
  Percent Growth: 65%
[1]; log10 conc −6.9
  Percent Growth: 87%
[1]; log10 conc −7.9
  Percent Growth: 93%
[1]; log10 conc −8.9
  Percent Growth: 96%
[2]
  TGI: 0.011 ng/mL
[2]; log10 conc −4.9
  Percent Growth: −5%
[2]; log10 conc −5.9
  Percent Growth: 76%
[2]; log10 conc −6.9
  Percent Growth: 100%
[2]; log10 conc −7.9
  Percent Growth: 101%
[2]; log10 conc −8.9
  Percent Growth: 98%
[3]
  TGI: 0.01 ng/mL
[3]; log10 conc −4.9
  Percent Growth: −5%
[3]; log10 conc −5.9
  Percent Growth: 47%
[3]; log10 conc −6.9
  Percent Growth: 98%
[3]; log10 conc −7.9
  Percent Growth: 105%
[3]; log10 conc −8.9
  Percent Growth: 106%
[4]
  TGI: 0.00585 ng/mL
[4]; log10 conc −4.9
  Percent Growth: −30%
[4]; log10 conc −5.9
  Percent Growth: 60%
[4]; log10 conc −6.9
  Percent Growth: 100%
[4]; log10 conc −7.9
  Percent Growth: 89%
[4]; log10 conc −8.9
  Percent Growth: 99%
[5]
  TGI: >0.0126 ng/mL
[5]; log10 conc −4.9
  Percent Growth: 4%
[5]; log10 conc −5.9
  Percent Growth: 77%
[5]; log10 conc −6.9
  Percent Growth: 105%
[5]; log10 conc −7.9
  Percent Growth: 105%
[5]; log10 conc −8.9
  Percent Growth: 109%
[6]
  TGI: 9.55E−06
[6]; Log 10 Concentration −4.9
  Mean Optical Densities: 0.026
  Percent Growth: −9%
[6]; Log 10 Concentration −5.9
  Mean Optical Densities: 1.738
  Percent Growth: 65%
[6]; Log 10 Concentration −6.9
  Mean Optical Densities: 2.606
  Percent Growth: 98%
[6]; Log 10 Concentration −7.9
  Mean Optical Densities: 2.616
  Percent Growth: 99%
[6]; Log 10 Concentration −8.9
  Mean Optical Densities: 2.468
  Percent Growth: 93%
[6]; read-out: LC50 (the source's name)
  CC50: > 12.6 µM
[7]
  TGI: 2.90E−06
[7]; Log 10 Concentration −4.9
  Mean Optical Densities: 0.027
  Percent Growth: −73%
[7]; Log 10 Concentration −5.9
  Mean Optical Densities: 0.398
  Percent Growth: 41%
[7]; Log 10 Concentration −6.9
  Mean Optical Densities: 0.539
  Percent Growth: 61%
[7]; Log 10 Concentration −7.9
  Mean Optical Densities: 0.336
  Percent Growth: 33%
[7]; Log 10 Concentration −8.9
  Mean Optical Densities: 0.883
  Percent Growth: 108%
[8]
  TGI: 3.18E−06
[8]; Log 10 Concentration −4.9
  Mean Optical Densities: −0.001
  Percent Growth: −100%
[8]; Log 10 Concentration −5.9
  Mean Optical Densities: 0.563
  Percent Growth: 67%
[8]; Log 10 Concentration −6.9
  Mean Optical Densities: 0.771
  Percent Growth: 102%
[8]; Log 10 Concentration −7.9
  Mean Optical Densities: 0.764
  Percent Growth: 101%
[8]; Log 10 Concentration −8.9
  Mean Optical Densities: 0.759
  Percent Growth: 100%
[9]; first set of tests, 2 days exposure, all cell lines tested
  reducing cell growth: effective in reducing cell growth against almost all the cell lines tested
[9]; leukemic, melanoma and ovarian cancer cell lines, 2 days exposure
  reduction of growth: more than 50%
[9]; most leukemic and melanoma cell lines, SNB-75, U251, PC-3, A498, CAKI-1, SN12C, NCI-H522, 2 days
  sensitivity relative to all the cell lines tested (mean graph, FIG. 2): especially sensitive

From patent US6875451B2, “Compositions and methods for the treatment of primary and metastatic neoplastic diseases using arsenic compounds” (PolaRx Biopharmaceuticals Inc., priority 1997, dated 2005)
